PMC12903969, “Discovery of a Novel and Potent Kir4.1 Inhibitor as a Safe and Rapid‐Onset Antidepressant Agent in Mice” (Advanced Science, 2025)
“And” between values parts separate entries of the source, which are not always exact repeats. Identical values can stand only once.

Legend:
C57BL/6J mice [1] = assay: Novelty-suppressed feeding test (NSFT); assay type: in vivo
Procedure: The mice were individually housed in new cages and deprived of food for 24 h. The testing equipment was a brightly lit plastic box measuring 40 × 40 × 30 cm^3 with a light intensity of 1100–1200 lux. Each mouse was positioned in a corner of the device with one food pellet located at the center. The latency to start chewing food was recorded within 5 min. Immediately thereafter, the mice were placed back in their home cage with pre‐measured food, and the amount consumed in the next 5 min was used as a baseline to account for appetite changes that might affect the outcome.

C57BL/6J mice [2] = assay: Open field test (OFT) after chronic administration; assay type: in vivo; details: chronic 10 mg kg−1 per day
Procedure: This test was used to assess anxiety‐related behaviors in the mice. C57BL/6J mice were individually habituated to a 40 × 40 × 40 cm^3 open field arena under dim light for […]. Locomotor activity during the final 5 min was digitally recorded (30 fps) and analyzed using Tracking Master (Future Life Science (Shanghai) Co., Ltd., Shanghai, China). The primary endpoints included the total ambulatory distance (cm) and center‐zone exploration frequency (20 × 20 cm^2 central area).

mice [3] = assay: Y-maze; assay type: in vivo; details: chronic 10 mg kg−1 per day
Procedure: This test was designed to evaluate spatial working memory. Briefly, mice were individually placed in a symmetrical Y‐maze and allowed to explore for 8 min. Entries were counted only when both hind paws crossed the arm threshold. Correct spatial alternation was defined as an entry into all three arms in an uninterrupted sequence (e.g., ABC, BCA or CAB each representing one alternation). The alternation percentage was derived as: [correct alternations/(total entries–2)] × 100%. After each session, the walls and floor of the maze were wiped with 75% ethanol and allowed to dry before the next animal was tested.

mice [4] = assay: Shuttle box test (SBT); assay type: in vivo
Procedure: This test was designed to measure learning and memory function in rodents. The shuttle box consists of two compartments connected by a freely passable gate. The mice were allowed to explore the test chamber freely for 5 min before the test to eliminate exploratory reflexes. Each mouse was placed in one compartment of the shuttle box. The conditioning protocol began with a 5‐s conditioned stimulus presentation of light (200 lux) and auditory tone (100 dB, 1000 Hz), followed immediately by a 3‐s footshock (300 µA) unconditioned stimulus. Escape to the opposite compartment during the conditioned stimulus presentation was scored as an active avoidance response, whereas escape occurring only after shock onset was recorded as […]. […] Each test session consisted of 40 trials with 10‐s inter‐trial intervals, with the number of active avoidance responses systematically recorded.

mice [5] = assay: Treadmill test (TT); assay type: in vivo; details: chronic 10 mg kg−1 per day
Procedure: This test was designed to quantify locomotor endurance in rodents. The time (300 s) and speed (maximum: 30 rpm) parameters for the treadmill were set using a digital panel and the mice were placed in lanes. Gentle electrical probes (0.3 mA) served as motivational stimuli. Total distance traveled was automatically recorded using rotary encoder integration.

mice [6] = assay: 21-day chronic administration: body weight, organ weight, serum biochemistry
mice [7] = assay: Rotarod test (RT); assay type: in vivo; details: chronic 10 mg kg−1 per day
Procedure: The rotarod test was designed to evaluate the coordination and motor performance of rodents. The speed and time were set for the rod rotators. All experimental mice were allowed to adapt to a lower speed (5 rpm). For the formal test, the mice were placed on a rod spinning at 20 rpm, and the duration that the mice were able to hold on the rod at this speed was recorded. The maximum test duration was 20 min.

C57BL/6J mice after CSDS [8] = assay: Chronic social defeat stress (CSDS) model, sucrose preference test; assay type: in vivo
Procedure: (§1) The 10‐day CSDS paradigm was conducted as previously described.^[ [24] ^] CD‐1 aggressive mice were singly housed in defeat cages on one side of a perforated plexiglass partition 24 h before the defeat session. Experimental C57BL/6J mice were placed daily on the resident cage side of a novel CD‐1 aggressor that rapidly initiated a physical attack on the intruder. After 10‐min of social defeat, the intruder mice were housed on the opposite side of the partition within a shared home cage, experiencing further sensory contact for the subsequent 24 h. In contrast, control mice were maintained in their home cages and allowed to explore the empty defeat cages for 10 min each day.
Mice were individually housed with two identical bottles containing either 1% sucrose solution or tap water for 24 h. The bottles were then replaced to eliminate potential positional bias, followed by an additional 24‐h period with the same solutions. Subsequently, the mice were provided with tap water for 24 h. During the experimental phase, new bottles filled with either 1% sucrose solution or tap water were presented for 24 h, and the bottles were changed every 12 h. The bottles were weighed both before and after the 24‐h test to assess consumption of each solution.

C57BL/6J mice after CSDS [9] = assay: CSDS model, social interaction test; assay type: in vivo; details: single i.p. injection 10 mg kg−1
Procedure: as §1
C57BL/6J mice, comprising both control and experimental groups, were placed individually into the social open field with a plexiglass enclosure positioned along the side wall. Movement parameters, including the time spent in the interaction zone, corner zones, and locomotion, were monitored and analyzed over the two test sessions using the AnyMaze Tracking System. In the first session, the mice freely explored the arena for 2.5 min. Then, a new aggressive CD‐1 mouse was introduced into the plexiglass enclosure, and the experimental mice returned to the arena for the second 2.5‐min session. The social interaction ratio was determined as the ratio between the time the experimental mice spent in the interaction zone when the target CD‐1 was present and the time spent in the zone when it was absent.

C57BL/6J mice after CSDS [10] = assay: CSDS model, forced swim test; assay type: in vivo
Procedure: as §1
Mice were placed individually in a transparent glass cylinder (25 cm high, 10 cm wide) filled with water (temperature 23–25 °C) to a depth of 10 cm, and prevented from making contact with the bottom. Mice behaviors were videotaped from each side. The observation period lasted for 6 min, with the final 4 min used to measure immobile behavior, which was processed using the AnyMaze Tracking System (Stoelting).

C57BL/6J mice [11] = assay: DOI-induced head twitch response (HTR); assay type: in vivo; details: 10 mg kg−1, 30-min test period
Procedure: Male C57BL/6J mice were habituated to the testing chambers for 30 min and 24 h after receiving acute doses of (S)‐ketamine (10 mg kg^−1, i.p.) or JX3212 (10 mg kg^−1, i.p.). Thirty minutes later, the mice received DOI at a dose of 5 mg kg^−1 (i.p.), and the head‐twitch response was scored over 30 min.

[12] = serum, 10 mg/kg, 21-day chronic administration, individual animals
[13] = single i.p. injection 10 mg kg−1

CN(C)CCCN1c2ccccc2CCc2ccccc21 [imipramine]
NSFT antidepressant-like effect (in words) (C57BL/6J mice [1]; imipramine 15 mg kg−1, single administration): failed to produce antidepressant‐like effects
food intake in home cage after NSFT (in words) (C57BL/6J mice [1]; repeated administration, vs vehicle): significant increase in food intake
NSFT antidepressant-like response after repeated administration (in words) (C57BL/6J mice [1]; seven days, imipramine 15 mg kg−1, JX3212 3/10 mg kg−1): elicited significant antidepressant‐like responses
OFT total and central distance traveled (in words) (C57BL/6J mice [2]): no pronounced differences
Y-maze alternation percentage vs vehicle (in words) (mice [3]): significantly reduced
shuttle box active avoidance responses (in words) (mice [4]; chronic 10 mg kg−1 per day): no significant differences
SBT active avoidance responses, single mice (mice [4]; chronic 10 mg/kg per day (Fig 5G)): 27 and 32 and 29 and 20 and 23 and 22
treadmill running distance vs vehicle (in words) (mice [5]): notably reduced
body weight during 21-day chronic administration (in words) (mice [6]; 10 mg kg−1 per day, vs vehicle): marked increase in body weight
Body weight (mice [6]; 10 mg/kg, day 7, individual animals): 24.5 (2×) and 25.5 (2×) and 25.8 and 25.3 and 24.2 and 25.4 and 24.9 and 26
Body weight (mice [6]; 10 mg/kg, day 8, individual animals): 25.5 and 24.5 and 24.8 (2×) and 26.1 and 24.4 and 25.3 (2×) and 26.2 and 25.8
Body weight (mice [6]; 10 mg/kg, day 9, individual animals): 26.3 and 25.3 (2×) and 26 and 25.4 and 25.8 and 26.4 and 24.8 and 25 and 24.6
Body weight (mice [6]; 10 mg/kg, day 10, individual animals): 26.1 and 26 (2×) and 25.3 (3×) and 25.5 and 25.2 and 26.3 and 24.9
Body weight (mice [6]; 10 mg/kg, day 11, individual animals): 26.1 (2×) and 25.7 (2×) and 24.8 and 24.6 and 24.4 and 25.4 and 26 and 24.7
Body weight (mice [6]; 10 mg/kg, day 12, individual animals): 26.1 and 26.9 and 25 (2×) and 27.4 and 25.8 (2×) and 26.2 and 24.9 and 26.6
Body weight (mice [6]; 10 mg/kg, day 13, individual animals): 25.3 (3×) and 26.2 and 26.5 and 27.2 and 26.4 and 27.3 and 25.6 (2×)
Body weight (mice [6]; 10 mg/kg, day 14, individual animals): 25.3 and 25.8 and 26.8 (2×) and 25.7 and 26.7 and 27.4 and 26.6 and 26.4 and 27.1
Body weight (mice [6]; 10 mg/kg, day 15, individual animals): 27.1 and 25.5 and 25.4 and 25.6 and 26.4 (2×) and 25.8 and 27.3 and 26.3 and 26
Body weight (mice [6]; 10 mg/kg, day 16, individual animals): 27.2 (2×) and 26.3 and 26.5 and 25.8 and 26.7 and 25.4 and 26.1 and 26.9 and 25.7
serum alanine aminotransferase level (in words) (mice [6]; 21-day administration): significant increase in alanine aminotransferase levels
serum aspartate aminotransferase and urea levels (in words) (mice [6]; 21-day administration): comparable
serum creatinine level (in words) (mice [6]; 21-day administration): marked decreases in creatinine levels
ALT (mice [6]; [12]): 39 and 34 and 31 and 33 and 48 and 37 and 52 and 40
AST (mice [6]; [12]): 151 and 169 and 124 and 111 and 168 and 222 and 112 and 198 and 207
Cr (mice [6]; [12]): 19 and 18 and 20 and 23 and 22
rotarod falling latency vs vehicle (in words) (mice [7]): notably reduced falling latency

CN[C@]1(c2ccccc2Cl)CCCCC1=O [(S)‐ketamine]
NSFT latency to feed (in words) (C57BL/6J mice [1]; single dose 10 mg kg−1 i.p., 1 h after administration): significantly reduced the latency to feed
SPT sucrose preference after CSDS, single mice (C57BL/6J mice after CSDS [8]; 10 mg/kg (Fig 3H)): 0.9625 and 0.9959 and 0.9967 and 0.7227 and 0.9713 and 0.6431 and 0.7826 and 0.9953
CSDS: sucrose preference in SPT (in words) (C57BL/6J mice after CSDS [8]; [13]): increased sucrose preference
CSDS: time spent in corners in SIT (in words) (C57BL/6J mice after CSDS [9]): shorter duration spent in the corners
FST immobility time after CSDS, single mice (C57BL/6J mice after CSDS [10]; 10 mg/kg (Fig 3I)): 77.33 and 102.37 and 98.48 and 95.78 and 108.86 and 103.57 and 122.58
CSDS: immobility in FST (in words) (C57BL/6J mice after CSDS [10]; [13]): no significant impact
number of DOI-induced head twitches vs vehicle (in words) (C57BL/6J mice [11]): significantly more
